Data: ChEMBL document CHEMBL3870335, “Bioactivity of topologically confined gramicidin A dimers” (Bioorg Med Chem, 2017)
pIC50: −log10 of the molar value. In brackets after ≈: the same amount, converted by molar mass. Where a SMILES comes first, the peptide text is derived from it. [ ]: non-standard residue; d: D form. The star is where a group is joined. NHCH2CH2OH = OCCN*; For = O=C*

Experiments:
Escherichia coli = test: Antimicrobial activity against Escherichia coli ATCC 25922 after 16 to 20 hrs by broth microdilution method; format: functional
[1] = Hemolytic activity against human erythrocytes at 20 to 140 uM after 30 mins; format: ADME, cell-based; conditions: erythrocyte, 0.5 h
Plasmodium falciparum [2] = test: Antimalarial activity against chloroquine-sensitive Plasmodium falciparum 3D7 after 72 hrs by NBT based LDH assay; format: functional; conditions: 3D7, 72 h
Plasmodium falciparum [3] = test: Antimalarial activity against chloroquine-resistant Plasmodium falciparum Dd2 after 72 hrs by NBT based LDH assay; format: functional; conditions: Dd2, 72 h
[4] = Induction of bulk conductivity in soybean asolectin planar lipid bilayers assessed as residual conductance of black lipid bilayer at 0.5 nM at pH 8
[5] = Induction of bulk conductivity in soybean asolectin planar lipid bilayers assessed as residual conductance of black lipid bilayer at 250 nM at pH 8
Klebsiella pneumoniae = test: Antimicrobial activity against Klebsiella pneumoniae ATCC 13883 after 16 to 20 hrs by broth microdilution method; format: functional
Proteus mirabilis = test: Antimicrobial activity against Proteus mirabilis ATCC 7002 after 16 to 20 hrs by broth microdilution method; format: functional
Pseudomonas aeruginosa = test: Antimicrobial activity against Pseudomonas aeruginosa ATCC 27853 after 16 to 20 hrs by broth microdilution method; format: functional
Streptococcus pneumoniae = test: Antimicrobial activity against Streptococcus pneumoniae serotype 19A after 16 to 20 hrs by broth microdilution method; format: functional
Enterococcus faecalis = test: Antimicrobial activity against Enterococcus faecalis ATCC 29212 after 16 to 20 hrs by broth microdilution method; format: functional
Enterococcus faecium = test: Antimicrobial activity against Enterococcus faecium DSMZ 20477 after 16 to 20 hrs by broth microdilution method; format: functional
[6] = tested on: Staphylococcus epidermidis; test: Antimicrobial activity against Staphylococcus epidermidis PP62A after 16 to 20 hrs by broth microdilution method; format: functional
Staphylococcus aureus = test: Antimicrobial activity against methicillin-resistant Staphylococcus aureus ATCC 43300 after 16 to 20 hrs by broth microdilution method; format: functional
[7] = Induction of bulk conductivity in soybean asolectin planar lipid bilayers assessed as residual conductance of black lipid bilayer at 500 nM at pH 8
[8] = Induction of bulk conductivity in soybean asolectin planar lipid bilayers assessed as residual conductance of black lipid bilayer at 1 nM at pH 8

SMILES | MIC (Escherichia coli) [µg/mL] | Activity [1] | pIC50 (Plasmodium falciparum [2]) | pIC50 (Plasmodium falciparum [3]) | Activity [4] [uS] | Activity [5] [uS] | MIC (Klebsiella pneumoniae) [µg/mL] | MIC (Proteus mirabilis) [µg/mL] | MIC (Pseudomonas aeruginosa) [µg/mL] | MIC (Streptococcus pneumoniae) [µg/mL] | MIC (Enterococcus faecalis) [µg/mL] | MIC (Enterococcus faecium) [µg/mL] | MIC [6] [µg/mL] | MIC (Staphylococcus aureus) [µg/mL] | Activity [7] [uS] | Activity [8] [uS]
CC(C)C[C@@H](NC(=O)[C@H](C)NC(=O)CNC(=O)[C@@H](NC(=O)CCSSCCC(=O)N[C@H](C(=O)NCC(=O)N[C@@H](C)C(=O)N[C@H](CC(C)C)C(=O)N[C@@H](C)C(=O)N[C@@H](C(=O)N[C@H](C(=O)N[C@@H](C(=O)N[C@@H](Cc1c[nH]c2ccccc12)C(=O)N[C@H](CC(C)C)C(=O)N[C@@H](Cc1c[nH]c2ccccc12)C(=O)N[C@H](CC(C)C)C(=O)N[C@@H](Cc1c[nH]c2ccccc12)C(=O)N[C@H](CC(C)C)C(=O)N[C@@H](Cc1c[nH]c2ccccc12)C(=O)NCCO)C(C)C)C(C)C)C(C)C)C(C)C)C(C)C)C(=O)N[C@@H](C)C(=O)N[C@@H](C(=O)N[C@H](C(=O)N[C@@H](C(=O)N[C@@H](Cc1c[nH]c2ccccc12)C(=O)N[C@H](CC(C)C)C(=O)N[C@@H](Cc1c[nH]c2ccccc12)C(=O)N[C@H](CC(C)C)C(=O)N[C@@H](Cc1c[nH]c2ccccc12)C(=O)N[C@H](CC(C)C)C(=O)N[C@@H](Cc1c[nH]c2ccccc12)C(=O)NCCO)C(C)C)C(C)C)C(C)C | > 64 | Non-Toxic | 7.51 | 7.58 | 0.4 | 66 |  |  |  |  |  |  |  |  |  | 
CC(C)C[C@H]1NC(=O)[C@H](C)NC(=O)CNC(=O)[C@H](C(C)C)NC(=O)CCSSCCC(=O)N[C@@H](C(C)C)C(=O)NCC(=O)N[C@@H](C)C(=O)N[C@H](CC(C)C)C(=O)N[C@@H](C)C(=O)N[C@H](C(C)C)C(=O)N[C@@H](C(C)C)C(=O)N[C@H](C(C)C)C(=O)N[C@@H](Cc2c[nH]c3ccccc23)C(=O)N[C@H](CC(C)C)C(=O)N[C@@H](Cc2c[nH]c3ccccc23)C(=O)N[C@H](CC(C)C)C(=O)N[C@@H](Cc2c[nH]c3ccccc23)C(=O)N[C@H](CC(C)C)C(=O)N[C@@H](Cc2c[nH]c3ccccc23)C(=O)NCCSSCCNC(=O)[C@H](Cc2c[nH]c3ccccc23)NC(=O)[C@@H](CC(C)C)NC(=O)[C@H](Cc2c[nH]c3ccccc23)NC(=O)[C@@H](CC(C)C)NC(=O)[C@H](Cc2c[nH]c3ccccc23)NC(=O)[C@@H](CC(C)C)NC(=O)[C@H](Cc2c[nH]c3ccccc23)NC(=O)[C@@H](C(C)C)NC(=O)[C@H](C(C)C)NC(=O)[C@@H](C(C)C)NC(=O)[C@H](C)NC1=O |  |  |  |  |  | < 0.3 |  |  |  |  |  |  |  |  |  | 
CC(C)C[C@H]1NC(=O)[C@H](C)NC(=O)CNC(=O)[C@H](C(C)C)NC(=O)CCSSCCNC(=O)[C@H](Cc2c[nH]c3ccccc23)NC(=O)[C@@H](CC(C)C)NC(=O)[C@H](Cc2c[nH]c3ccccc23)NC(=O)[C@@H](CC(C)C)NC(=O)[C@H](Cc2c[nH]c3ccccc23)NC(=O)[C@@H](CC(C)C)NC(=O)[C@H](Cc2c[nH]c3ccccc23)NC(=O)[C@@H](C(C)C)NC(=O)[C@H](C(C)C)NC(=O)[C@@H](C(C)C)NC(=O)[C@H](C)NC(=O)[C@@H](CC(C)C)NC(=O)[C@H](C)NC(=O)CNC(=O)[C@H](C(C)C)NC(=O)CCSSCCNC(=O)[C@H](Cc2c[nH]c3ccccc23)NC(=O)[C@@H](CC(C)C)NC(=O)[C@H](Cc2c[nH]c3ccccc23)NC(=O)[C@@H](CC(C)C)NC(=O)[C@H](Cc2c[nH]c3ccccc23)NC(=O)[C@@H](CC(C)C)NC(=O)[C@H](Cc2c[nH]c3ccccc23)NC(=O)[C@@H](C(C)C)NC(=O)[C@H](C(C)C)NC(=O)[C@@H](C(C)C)NC(=O)[C@H](C)NC1=O | > 64 |  | 8.54 | 8.57 |  |  | > 64 | > 64 | > 64 | > 64 | > 64 | > 64 | > 64 | > 64 | < 0.3 | 
CC(C)C[C@@H](NC(=O)[C@H](C)NC(=O)CNC(=O)[C@@H](NC(=O)CCS)C(C)C)C(=O)N[C@@H](C)C(=O)N[C@@H](C(=O)N[C@H](C(=O)N[C@@H](C(=O)N[C@@H](Cc1c[nH]c2ccccc12)C(=O)N[C@H](CC(C)C)C(=O)N[C@@H](Cc1c[nH]c2ccccc12)C(=O)N[C@H](CC(C)C)C(=O)N[C@@H](Cc1c[nH]c2ccccc12)C(=O)N[C@H](CC(C)C)C(=O)N[C@@H](Cc1c[nH]c2ccccc12)C(=O)NCCO)C(C)C)C(C)C)C(C)C | > 64 |  |  |  |  |  |  |  |  |  |  |  |  |  | 42 | 0.7
CC(=O)N[C@H](C(=O)NCC(=O)N[C@@H](C)C(=O)N[C@H](CC(C)C)C(=O)N[C@@H](C)C(=O)N[C@@H](C(=O)N[C@H](C(=O)N[C@@H](C(=O)N[C@@H](Cc1c[nH]c2ccccc12)C(=O)N[C@H](CC(C)C)C(=O)N[C@@H](Cc1c[nH]c2ccccc12)C(=O)N[C@H](CC(C)C)C(=O)N[C@@H](Cc1c[nH]c2ccccc12)C(=O)N[C@H](CC(C)C)C(=O)N[C@@H](Cc1c[nH]c2ccccc12)C(=O)NCCS)C(C)C)C(C)C)C(C)C)C(C)C | > 64 |  | 8.26 | 8.10 | 1.9 |  | > 64 | > 64 | > 64 | 0.05 (≈ 0.0261 µM) | > 64 | > 64 | > 64 | > 64 | 93 | 
CC(C)C[C@@H](NC(=O)[C@H](C)NC(=O)CNC(=O)[C@@H](NC(=O)CCS)C(C)C)C(=O)N[C@@H](C)C(=O)N[C@@H](C(=O)N[C@H](C(=O)N[C@@H](C(=O)N[C@@H](Cc1c[nH]c2ccccc12)C(=O)N[C@H](CC(C)C)C(=O)N[C@@H](Cc1c[nH]c2ccccc12)C(=O)N[C@H](CC(C)C)C(=O)N[C@@H](Cc1c[nH]c2ccccc12)C(=O)N[C@H](CC(C)C)C(=O)N[C@@H](Cc1c[nH]c2ccccc12)C(=O)NCCS)C(C)C)C(C)C)C(C)C | > 64 |  |  |  |  |  | > 64 | > 64 | > 64 | > 64 | > 64 | > 64 | > 64 | > 64 | 0.3 | < 0.3
CC[C@H]1OC(=O)[C@H](C)[C@@H](O[C@H]2C[C@@](C)(OC)[C@@H](O)[C@H](C)O2)[C@H](C)[C@@H](O[C@@H]2O[C@H](C)C[C@H](N(C)C)[C@H]2O)[C@](C)(O)C[C@@H](C)C(=O)[C@H](C)[C@@H](O)[C@]1(C)O [ERYTHROMYCIN] | > 32 |  |  |  |  |  | > 64 | > 64 | > 64 | > 64 | 1 (≈ 1.36 µM) | 2 to 4 (≈ 2.73 to 5.45 µM) | > 64 | 0.5 (≈ 0.681 µM) |  | 
CC(C)C[C@@H](NC(=O)[C@H](C)NC(=O)CNC(=O)[C@@H](NC(=O)CCSSc1ccc([N+](=O)[O-])c(C(=O)O)c1)C(C)C)C(=O)N[C@@H](C)C(=O)N[C@@H](C(=O)N[C@H](C(=O)N[C@@H](C(=O)N[C@@H](Cc1c[nH]c2ccccc12)C(=O)N[C@H](CC(C)C)C(=O)N[C@@H](Cc1c[nH]c2ccccc12)C(=O)N[C@H](CC(C)C)C(=O)N[C@@H](Cc1c[nH]c2ccccc12)C(=O)N[C@H](CC(C)C)C(=O)N[C@@H](Cc1c[nH]c2ccccc12)C(=O)NCCO)C(C)C)C(C)C)C(C)C | > 64 |  |  |  |  |  | > 64 | > 64 | > 64 | > 64 | 1 (≈ 0.467 µM) | 0.5 (≈ 0.234 µM) | 1 (≈ 0.467 µM) | > 64 | 115 | 0.2
CC(C)C[C@@H](NC(=O)[C@H](C)NC(=O)CNC(=O)[C@@H](NC=O)C(C)C)C(=O)N[C@@H](C)C(=O)N[C@@H](C(=O)N[C@H](C(=O)N[C@@H](C(=O)N[C@@H](Cc1c[nH]c2ccccc12)C(=O)N[C@H](CC(C)C)C(=O)N[C@@H](Cc1c[nH]c2ccccc12)C(=O)N[C@H](CC(C)C)C(=O)N[C@@H](Cc1c[nH]c2ccccc12)C(=O)N[C@H](CC(C)C)C(=O)N[C@@H](Cc1c[nH]c2ccccc12)C(=O)NCCO)C(C)C)C(C)C)C(C)C (For-VGA[dL]A[dV]V[dV]W[dL]W[dL]W[dL]W-NHCH2CH2OH) | > 64 | Toxic | 10.30 | 10.85 | > 50 |  | > 64 | > 64 | > 64 | 0.05 (≈ 0.0266 µM) | 1 (≈ 0.531 µM) | 2 (≈ 1.06 µM) | 0.5 (≈ 0.266 µM) | 64 (≈ 34 µM) |  | 
